Laboratory results reported in BindingDB's records for doi:10.1021/jm00172a010 (Centre De Recherches De Vitry, 1990).
pIC50: −log10 of the molar value.

How the values were obtained:
[1] = target: T1, Polyunsaturated fatty acid 5-lipoxygenase (Rattus norvegicus, UniProt P12527); test: In vitro inhibitory activity against 5-Lipoxygenase in rat by Peritoneal 5-lipoxygenase assay
T1 sequence (P12527 whole entry): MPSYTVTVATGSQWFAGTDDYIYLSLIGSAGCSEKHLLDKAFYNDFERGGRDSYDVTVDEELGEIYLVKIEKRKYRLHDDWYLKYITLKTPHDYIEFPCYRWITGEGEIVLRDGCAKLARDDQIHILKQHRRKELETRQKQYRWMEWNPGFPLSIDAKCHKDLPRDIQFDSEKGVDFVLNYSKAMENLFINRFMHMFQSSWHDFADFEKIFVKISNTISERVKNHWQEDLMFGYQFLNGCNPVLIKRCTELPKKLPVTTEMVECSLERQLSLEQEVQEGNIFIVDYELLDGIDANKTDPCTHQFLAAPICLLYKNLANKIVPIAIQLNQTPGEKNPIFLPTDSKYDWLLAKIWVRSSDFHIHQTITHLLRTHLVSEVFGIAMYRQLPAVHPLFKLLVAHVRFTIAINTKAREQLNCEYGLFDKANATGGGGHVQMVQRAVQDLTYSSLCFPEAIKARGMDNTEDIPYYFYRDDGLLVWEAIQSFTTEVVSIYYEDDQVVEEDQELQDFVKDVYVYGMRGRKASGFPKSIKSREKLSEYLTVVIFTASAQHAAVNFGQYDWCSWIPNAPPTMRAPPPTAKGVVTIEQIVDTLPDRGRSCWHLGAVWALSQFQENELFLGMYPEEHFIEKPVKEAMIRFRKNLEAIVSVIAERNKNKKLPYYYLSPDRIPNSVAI

[2] = target: T1, Polyunsaturated fatty acid 5-lipoxygenase; test: In vitro inhibition of 5-lipoxygenase in rat (peritoneal assay)

SMILES	pIC50 [1]	pIC50 [2]
CCOC(=O)C(=CCC(=O)C(=O)c1ccccc1)Sc1ccccc1	–	5.52
